Source: patent publication US20100267561A1, “HERBICIDAL PYRIDAZINONE DERIVATIVES” (priority 2007, published 2010)

Experiments:
Experiment in all cases: Test A pre-/postemergence plant response
Format in all cases: in vivo
[1] = system: barnyardgrass (Echinochloa crus-galli)
Summary of the method: (§1)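 Seeds sown in loam–sand blend; test chemicals in non-phytotoxic solvent with surfactant applied preemergence as directed soil spray and, concurrently, postemergence to plants 2–10 cm tall at one- to two-leaf stage. Greenhouse ~10 days, then visual injury rating vs untreated controls on 0–100 scale (0 = no effect, 100 = complete control).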

[2] = system: blackgrass (Alopecurus myosuroides)
Summary of the method: as §1

[3] = system: canarygrass (Phalaris minor)
Summary of the method: as §1

corn (Zea mays) = system: corn (Zea mays)
Summary of the method: as §1

[4] = system: giant foxtail (Setaria faberi)
Summary of the method: as §1

[5] = system: large crabgrass (Digitaria sanguinalis)
Summary of the method: as §1

[6] = system: pigweed (Amaranthus retroflexus)
Summary of the method: as §1

[7] = system: wheat (Triticum aestivum)
Summary of the method: as §1

[8] = Postemergence, 31 g ai/ha, 0 to 100 scale (0 no effect, 100 complete control)
[9] = Postemergence, 125 g ai/ha, 0 to 100 scale, 0 no effect, 100 complete control
[10] = Preemergence, 31 g ai/ha, 0 to 100 scale, 0 is no effect, 100 is complete control
[11] = Preemergence, 125 g ai/ha, 0 to 100 scale (0 no effect, 100 complete control)

| Structure (SMILES) | Plant response rating, Barnyardgrass [1, 8] | Plant response rating, Barnyardgrass [1, 9] | Plant response rating, Barnyardgrass [1, 10] | Plant response rating, Barnyardgrass [1, 11] | Plant response rating, Blackgrass [2, 8] | Plant response rating, Blackgrass [2, 9] | Plant response rating, Blackgrass [2, 10] | Plant response rating, Blackgrass [2, 11] | Plant response rating, Canarygrass [3, 8] | Plant response rating, Canarygrass [3, 9] | Plant response rating, Canarygrass [3, 10] | Plant response rating, Canarygrass [3, 11] | Plant response rating, Corn (corn (Zea mays); [8]) | Plant response rating, Corn (corn (Zea mays); [9]) | Plant response rating, Corn (corn (Zea mays); [11]) | Plant response rating, Foxtail, Giant [4, 8] | Plant response rating, Foxtail, Giant [4, 9] | Plant response rating, Foxtail, Giant [4, 10] | Plant response rating, Foxtail, Giant [4, 11] | Plant response rating, Crabgrass, Large [5, 8] | also measured |
| --- | --- | --- | --- | --- | --- | --- | --- | --- | --- | --- | --- | --- | --- | --- | --- | --- | --- | --- | --- | --- | --- |
| COc1nn(C)c(=O)c(-n2nc(-c3ccc(Br)cc3)cc2C)c1O [Compound 93] | 100 | 100 | 20 | 100 | 90 | 100 | 30 | 100 | 80 | 100 | 10 | 90 | 80 | 100 | 60 | 100 | 100 | 90 | 100 | 100 | Plant response rating, Corn (corn (Zea mays); [10]): 30; Plant response rating, Crabgrass, Large [5, 9]: 100; Plant response rating, Crabgrass, Large [5, 10]: 20; Plant response rating, Crabgrass, Large [5, 11]: 100; Plant response rating, Pigweed [6, 8]: 0; Plant response rating, Pigweed [6, 9]: 0; Plant response rating, Pigweed [6, 10]: 0; Plant response rating, Pigweed [6, 11]: 0; Plant response rating, Wheat [7, 8]: 70; Plant response rating, Wheat [7, 9]: 80; Plant response rating, Wheat [7, 10]: 50; Plant response rating, Wheat [7, 11]: 80 |
| CCc1cc(-c2ccc(C(F)(F)F)cc2)nn1-c1c(OC(=O)c2ccc(Cl)nc2)cnn(C)c1=O [Compound 94] | 100 | 100 | 50 | 100 | 80 | 100 | 60 | 100 | 70 | 100 | 70 | 90 | 100 | 100 | 90 | 100 | 100 | 90 | 100 | 90 | Plant response rating, Crabgrass, Large [5, 9]: 100; Plant response rating, Crabgrass, Large [5, 10]: 70; Plant response rating, Crabgrass, Large [5, 11]: 100; Plant response rating, Pigweed [6, 8]: 0; Plant response rating, Pigweed [6, 9]: 0; Plant response rating, Pigweed [6, 10]: 0; Plant response rating, Pigweed [6, 11]: 0; Plant response rating, Wheat [7, 8]: 50; Plant response rating, Wheat [7, 9]: 80; Plant response rating, Wheat [7, 10]: 50; Plant response rating, Wheat [7, 11]: 90 |
